Columns and labels:
[1] = system: Parkinson's disease patients; conditions: subcutaneous injection, marketing literature; cited from earlier work
[2] = cited from earlier work
[3] = system: male erectile dysfunction patients; assay: VR004/008 Phase IIb study, male erectile dysfunction; assay type: in vivo, human; conditions: a couple of patients receiving 310 μg and 430 μg doses
Experimental: In contrast, in a recent clinical study relating to male erectile dysfunction (VR004/008 Phase IIb study), the majority of patients reported that the duration of action lasted between 2 to 10 minutes, although a couple of patients receiving 310 μg and 430 μg doses did report that the duration of action lasted over 30 minutes.=

[4] = human, in vivo
patients with PD [5] = conditions: subcutaneous, cited from earlier work
[6] = system: Parkinson's disease patients; assay: Therapeutic effect of apomorphine by pulmonary inhalation in a clinical trial; assay type: in vivo, human
patients with PD [7] = conditions: subcutaneous, 11/16 patients; cited from earlier work

Tmax, fastest observed [4]: 1 min
SMILES: CN1CCc2cccc3c2[C@H]1Cc1ccc(O)c(O)c1-3 [apomorphine]
patients with improved movement within 20 minutes post dose [1]: 90%
dose linearity of pharmacokinetics ([2]; dose range of 2 to 8 mg, single subcutaneous injection into the abdominal wall, idiopathic Parkinson's disease): linear pharmacokinetics
Tmax ([2]; nasal administration): approximately 15 minutes
duration of action [3]: over 30 minutes
patients reporting an increased dyskinesia severity compared to baseline (patients with PD [5]; 15 of 20 patients): 75%
patients reporting signs of dyskinesia (patients with PD [5]; active group, FIG. 14): 35%
mean daily duration of on state with non-troublesome dyskinesia and troublesome dyskinesias (patients with PD [5]; active group): 0.24 h
change in the mean daily period asleep from the baseline (patients with PD [5]; active treatment group): 0.10 h
mean time to reach therapeutic effect (patients with PD [5]; active treatment group): 22.2 min
onset of the therapeutic effect (conversion) ([6]; majority of patients, after inhaling): ≤ 10 min
mean duration of the therapeutic effect ([6]; pulmonary inhalation, in a clinical trial): 75 min
conversion from the off to the on state, quickest reported ([6]; some patients, pulmonary inhalation): 2 min
patients reporting incidences of dyskinesia (patients with PD [7]): 69%

Reference: patent US20130287854A1, “COMPOSITIONS AND USES” (VECTURA LIMITED, priority 2010, published 2013)
